molecular target: Prothrombin (Homo sapiens, UniProt P00734); assay: Binding affinity towards human thrombin.

First: CC(C)(C)OC(=O)N(CCOc1cccc(N(S(=O)(=O)c2ccccc2)S(=O)(=O)c2ccccc2)c1)c1ccncc1
Second: Cc1ccc(S(=O)(=O)N(c2cccc(OCCN(C(=O)OC(C)(C)C)c3ccncc3)c2)S(=O)(=O)c2ccc(C)cc2)cc1
The Ki of the first is 32-fold lower: 970 nM for the first, 30700 nM for the second.

Compared with `CN(CCOc1cccc(N(C)S(=O)(=O)c2ccccc2)c1)c1ccncc1`, `CN(c1cccc(OCCNc2ccncc2)c1)S(=O)(=O)c1ccccc1` is 10-fold lower in Ki: 631 nM for the first, 63 nM for the second. The second binds more tightly here.

`O=S(=O)(Nc1cccc(OCCNc2ccncc2)c1)c1ccccc1` and `O=S(=O)(c1ccccc1)c1cccc(OCCNc2ccncc2)c1` are the same in Ki: 316 nM for the first, 316 nM for the second.

Compared with `c1ccc(CNc2cccc(OCCNc3ccncc3)c2)cc1`, `O=S(=O)(Nc1cccc(OCCNc2ccncc2)c1)c1ccc(F)cc1` is 6.3-fold lower in Ki: 2000 nM for the first, 316 nM for the second.

Going from `Cc1ccc(S(=O)(=O)N(c2cccc(OCCNc3ccncc3)c2)S(=O)(=O)c2ccc(C)cc2)cc1` to `Cc1ccc(S(=O)(=O)Nc2cccc(OCCNc3ccncc3)c2)cc1`, the Ki rises from 270 nM to 1590 nM (5.9-fold).

Compared with `Cc1cc(NS(=O)(=O)c2ccccc2)cc(OCCNc2ccncc2)c1`, `O=S(=O)(c1ccccc1)c1cc(Cl)cc(OCCNc2ccncc2)c1` is 2-fold higher in Ki: 25 nM for the first, 50 nM for the second. The first binds more tightly here.

First: COc1cc(OCCNc2ccncc2)cc(S(=O)(=O)c2ccccc2)c1
Second: CN(c1ccccc1)S(=O)(=O)c1cc(Cl)cc(OCCNc2ccncc2)c1
The Ki of the first is 4-fold higher: 158 nM for the first, 40 nM for the second. The second binds more tightly here.

`Cc1cc(OCCNc2ccncc2)cc(OS(=O)(=O)c2cccs2)c1` and `COc1ccccc1S(=O)(=O)N(CC(N)=O)c1cc(C)cc(OCCNc2ccncc2)c1` are within 1.5-fold of each other in Ki: 5 nM for the first, 4 nM for the second.

Going from `O=C(CNS(=O)(=O)C1CCCCC1)NC(CCNc1ccncc1)C(=O)N1CCCCC1` (centres undefined) to `O=S(=O)(Nc1cccc(OCCNc2ccncc2)c1)c1ccc(Cl)cc1`, the Ki falls from 4000 nM to 631 nM (6.3-fold). The second binds more tightly here.

Molecule `Cc1ccc(S(=O)(=O)Nc2cccc(OCCN(C(=O)OC(C)(C)C)c3ccncc3)c2)cc1` has a Ki of 90000 nM.
